In article PMC9939323 (Acta Pharmaceutica Sinica. B, 2022):

Tests used:
[1] = molecular target: neuraminidase (NA) of H1N1 (A/PR/8/34) (Influenza A virus (A/Puerto Rico/8/1934(H1N1)), UniProt P03468); test: NA-Fluor fluorescence assay, whole virus; format: biochemical; details: NA-Fluor substrate, […] °C, […] min preincubation, […] h
[2] = molecular target: neuraminidase (NA) of H1N1 (A/PR/8/34) (Influenza A virus (A/Puerto Rico/8/1934(H1N1)), UniProt P03468); test: NA-Fluor fluorescence assay, whole virus; format: biochemical; details: read-out: % inhibition at 10 μmol/L

neuraminidase (NA) of H1N1 (A/PR/8/34) (Influenza A virus (A/Puerto Rico/8/1934(H1N1)), UniProt P03468), sequence (P03468 whole entry): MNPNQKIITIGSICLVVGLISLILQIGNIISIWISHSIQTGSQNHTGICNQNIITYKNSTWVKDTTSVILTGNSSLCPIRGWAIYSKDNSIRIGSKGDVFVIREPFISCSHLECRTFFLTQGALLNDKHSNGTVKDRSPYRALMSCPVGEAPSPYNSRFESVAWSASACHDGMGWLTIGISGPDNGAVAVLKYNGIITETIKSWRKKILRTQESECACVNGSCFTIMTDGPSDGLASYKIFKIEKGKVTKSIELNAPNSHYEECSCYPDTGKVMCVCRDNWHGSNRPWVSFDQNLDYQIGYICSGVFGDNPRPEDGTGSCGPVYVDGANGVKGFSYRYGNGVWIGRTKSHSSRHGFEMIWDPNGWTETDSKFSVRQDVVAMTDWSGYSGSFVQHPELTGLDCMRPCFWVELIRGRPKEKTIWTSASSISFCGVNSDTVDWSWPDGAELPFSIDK

Structure (SMILES)	% inhibition at 10 μmol/L [1]	inhibition at 10 µM [2] [%]
Oc1ccc(/C=C/c2cc(O)cc3c2[C@@H](c2cc(O)cc(O)c2)[C@H](c2ccc(O)cc2)O3)cc1 [ε-viniferin]	Ampelopsin A and ε-viniferin exhibited weak inhibitory effects	
Oc1ccc([C@H]2c3c(O)cc(O)cc3[C@H]3c4c(cc(O)cc4[C@@H]2c2cc(/C=C/c4cc(O)cc5c4[C@H](c4cc(O)cc(O)c4)[C@@H](c4ccc(O)cc4)O5)ccc2O)O[C@@H]3c2ccc(O)cc2)cc1 [vitisin A]		43
